# Target: recombinant human PAI-1 (Homo sapiens, UniProt P05121)
# Experiment: PAI-1 inhibitory activity, Test Method A (tPA fluorogenic substrate, Tris buffer pH8.0, 37 C)
# Assay type: biochemical
# Details: 25 μM test compound; Test Method A
# Experimental: To this solution, 50 μL solution of 400 μM fluogenic substrate for tPA (Pyr-Gly-Arg-MCA, Peptide Institute, Inc.) adjusted with the same buffer was added, and reacted for 30 minutes at 37° C. The reaction was stopped by adding 50 μL of 2% acetic acid. Fluorescence was measured at the excitation wavelength=360 nm, emission wavelength=460 or 465 nm using a microplate reader (SPECTRAFLUOR or GENios) by TECAN. The fluorescence intensities in the presence of the PAI-1 as the control (DMSO) or in the absence of the PAI-1 (tPA alone) were taken as 100% and 0% of PAI-1 activities, respectively, and inhibitory ratios of PAI-1 activities in the presence of the test compound were obtained.
# <Composition of the Tris Buffer (pH8.0)>
# recombinant human PAI-1, sequence (P05121 24-402): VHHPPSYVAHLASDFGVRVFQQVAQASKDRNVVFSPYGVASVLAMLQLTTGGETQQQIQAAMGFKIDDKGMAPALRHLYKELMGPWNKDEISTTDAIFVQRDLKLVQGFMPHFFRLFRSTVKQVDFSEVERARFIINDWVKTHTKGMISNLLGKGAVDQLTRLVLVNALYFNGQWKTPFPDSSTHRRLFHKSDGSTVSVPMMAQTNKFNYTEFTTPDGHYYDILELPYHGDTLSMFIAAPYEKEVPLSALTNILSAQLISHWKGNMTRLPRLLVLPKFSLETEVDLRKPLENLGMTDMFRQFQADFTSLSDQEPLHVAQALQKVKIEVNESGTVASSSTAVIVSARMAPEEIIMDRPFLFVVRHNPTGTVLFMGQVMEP
row,Inhibitory Ratio at 25 μM (%),Compound
1,59,"COC(=O)c1cccc(NC(=O)c2cc(C=C3SC(=O)N(Cc4ccc(Cl)c(Cl)c4)C3=O)ccc2O)c1 [compound 417, 5-{4-hydroxy-3-[3-(methoxycarbonyl)phenylcarbamoyl]benzylidene}-3-(3,4-dichlorobenzyl)thiazolidine-2,4-dione]"
2,>99,"O=C1SC(=Cc2ccc(O)c(O)c2)C(=O)N1Cc1cnc(Cl)c(Cl)c1 [compound 304, 5-(3,4-Dihydroxybenzylidene)-3-[(5,6-dichloropyridin-3-yl)-methyl]thiazolidine-2,4-dione]"
3,61,"COc1cc(C=C2SC(=O)N(Cc3ccc(Cl)c(Cl)c3)C2=O)ccc1Cl [compound 327, 5-(3-methoxy-4-chlorobenzylidene)-3-(3,4-dichlorobenzyl)-thiazolidine-2,4-dione]"
4,76,CC(C)C1=NN(c2ccc(Cl)c(Cl)c2)C(=O)C1=Cc1cc(C=Cc2ccc(Oc3ccccc3)cc2)ccc1O [Compound No. 566]
5,>99,"COc1ccc(NC(=O)c2cc(C=C3SC(=O)N(Cc4cc(C)cc(C)c4)C3=O)ccc2O)cc1OC [compound 393, 5-[4-Hydroxy-3-(3,4-dimethoxyphenylcarbamoyl)benzylidene]-3-(3,5-dimethylbenzyl)thiazolidine-2,4-dione]"
6,>99,"COc1cccc(NC(=O)c2cc(C=C3SC(=O)N(Cc4ccc(Cl)c(Cl)c4)C3=O)ccc2O)c1OC [compound 434, 5-[4-hydroxy-3-(2,3-dimethoxyphenylcarbamoyl)benzylidene]-3-(3,4-dichlorobenzyl)thiazolidine-2,4-dione]"
7,>99,"COc1ccc(NC(=O)c2cc(C=C3SC(=O)N(Cc4cc(C(F)(F)F)ccc4C(F)(F)F)C3=O)ccc2O)cc1OC [compound 372, 5-[4-Hydroxy-3-(3,4-dimethoxyphenylcarbamoyl)benzylidene]-3-[2,5-bis(trifluoromethyl)benzyl]thiazolidine-2,4-dione]"
8,>99,Cc1cc(C)cc(CN2C(=O)SC(=Cc3ccc(O)c(C(=O)Nc4ccc(O)c(O)c4)c3)C2=O)c1 [compound 394]
9,>99,O=C(O)c1c(O)cc(C=C2SC(=O)N(Cc3ccc(Cl)c(Cl)c3)C2=O)cc1O [compound 446]
10,36,"O=C1SC(=Cc2c[nH]c3ccccc23)C(=O)N1Cc1ccc(Cl)c(Cl)c1 [compound 410, 5-(indol-3-ylmethylene)-3-(3,4-dichlorobenzyl)thiazolidine-2,4-dione]"
11,>99,"O=C1SC(=Cc2ccc(O)c(O)c2)C(=O)N1Cc1ccc(Nc2ccccc2)cc1 [compound 302, 5-(3,4-Dihydroxybenzylidene)-3-[4-(phenylamino)benzyl]thiazolidine-2,4-dione]"
12,97,"COc1ccc(NC(=O)c2cc(C=C3SC(=O)N(Cc4ccc(Cl)c(Cl)c4)C3=O)ccc2O)cn1 [compound 407, 5-{4-hydroxy-3-[(2-methoxypyridin-5-yl)carbamoyl]benzylidene}-3-(3,4-dichlorobenzyl)thiazolidine-2,4-dione]"
13,87,O=C(O)c1cc(C=C2SC(=O)N(Cc3ccc(Cl)c(Cl)c3)C2=O)cc(-c2ccccc2)c1O [compound 430]
14,75,COc1ccc(C=Cc2ccccc2)cc1C=C1C(=O)N(c2ccc(C(=O)O)cc2)N=C1C(C)C [compound 535]
15,>99,O=C1C(=Cc2cc(C=Cc3ccccc3)ccc2O)C(c2ccc(O)cc2)=NN1c1ccc(Cl)cc1 [compound 530]
16,54,"COc1ccc(NC(=O)c2cc(C=C3SC(=O)N(Cc4ccc(Cl)c(Cl)c4)C3=O)ccc2O)cc1OC [compound 351, 5-[4-Hydroxy-3-(3,4-dimethoxyphenylcarbamoyl)benzylidene]-3-(3,4-dichlorobenzyl)thiazolidine-2,4-dione]"
17,62,CCOC1=NN(c2ccc([N+](=O)[O-])cc2)C(=O)C1=Cc1c2ccccc2cc2ccccc12 [compound 547]
18,34,COc1c(O)cccc1C=C1SC(=O)N(Cc2ccc(Cl)c(Cl)c2)C1=O [compound 329]
19,80,O=C(O)c1ccc(CN2C(=O)SC(=Cc3ccc(O)c(C(=O)Nc4ccc(Cl)c(Cl)c4)c3)C2=O)cc1 [compound 418]
20,93,CC(C)C1=NN(c2cc(Cl)cc(Cl)c2)C(=O)C1=Cc1ccc(O)cc1O [compound 505]
21,93,O=C(Nc1ccc(O)c(O)c1)c1cc(C=C2SC(=O)N(Cc3ccc(-c4ccccc4)cc3)C2=O)ccc1O [compound 373]

row,Compound,Inhibitory Ratio at 25 μM (%)
1,O=C1SC(=Cc2ccc(O)c(-c3ccc(O)c(O)c3)c2)C(=O)N1Cc1ccc(Cl)c(Cl)c1 [compound 445],>99
2,CC(C)C1=NN(c2ccc(Cl)c(Cl)c2)C(=O)C1=Cc1cc(O)ccc1O [compound 519],80
3,O=C(Nc1cc(C(F)(F)F)ccc1F)c1cc(C=C2SC(=O)N(Cc3ccc(Cl)c(Cl)c3)C2=O)ccc1O [compound 442],58

# Same assay, conditions: test compound 25 μM; Test Method A
row,Inhibitory Ratio at 25 μM (%),Compound
1,39,CCOC1=NN(c2ccc([N+](=O)[O-])cc2)C(=O)C1=Cc1ccc(O)c(O)c1O [compound 155]
2,>99,"O=C1SC(=Cc2cccc(O)c2O)C(=O)N1CCc1ccc(Cl)cc1 [compound 90, 5-(2,3-Dihydroxybenzylidene)-3-[2-(4-chlorophenyl)ethyl]thiazolidine-2,4-dione]"
3,>99,"O=C1SC(=Cc2cccc(O)c2O)C(=O)N1Cc1cccc(Br)c1 [compound 34, 5-(2,3-Dihydroxybenzylidene)-3-(3-bromobenzyl)thiazolidine-2,4-dione]"
4,>99,O=C1SC(=Cc2ccc(O)c(O)c2)C(=O)N1Cc1ccc(Cl)cc1 [compound 33]
5,80,Cc1ccc(N2N=C(C(C)C)C(=Cc3cccc(O)c3)C2=O)cc1Cl [compound 121]
6,>99,"O=C(CN1C(=O)SC(=Cc2ccc(O)c(O)c2)C1=O)c1ccc(Cl)cc1Cl [compound 92, 5-(3,4-Dihydroxybenzylidene)-3-[(2,4-dichlorobenzoyl)-methyl]thiazolidine-2,4-dione]"
7,20,"O=C1C(=Cc2ccc(O)c(O)c2)SC(=S)N1c1ccc(O)c(O)c1 [compound 77, 5-(3,4-Dihydroxybenzylidene)-3-(3,4-dihydroxyphenyl)rhodanine]"
8,77,O=C(O)c1cccc(N2N=C(c3ccccc3)C(=Cc3ccc(Br)o3)C2=O)c1 [compound 215]
9,>99,O=C1SC(=Cc2ccc(O)c(O)c2)C(=O)N1Cc1cccc(Br)c1 [compound 35]
10,65,Nc1ccc(C=C2SC(=O)N(Cc3ccc(Cl)c(Cl)c3)C2=O)cc1O [compound 88]
11,>99,O=C1SC(=Cc2ccc(O)c(O)c2)C(=O)N1Cc1cc(C(F)(F)F)cc(C(F)(F)F)c1 [compound 4]
12,27,"COC(=O)c1cccc(N2N=C(C(C)C)C(=Cc3cc(Br)cc(Br)c3O)C2=O)c1 [compound 108, 4-(3,5-Dibromo-2-hydroxybenzylidene)-1-[3-(Methoxycarbonyl)phenyl]-3-isopropyl-2-pyrazolin-5-one]"
13,92,"CC(C)C1=NN(c2cc(Cl)cc(Cl)c2)C(=O)C1=Cc1cccc(O)c1O [compound 104, 4-(2,3-Dihydroxybenzylidene)-1-(3,5-dichlorophenyl)-3-isopropyl-2-pyrazolin-5-one]"
14,40,CC(C)(C)C1=NN(c2cccc(C(=O)O)c2)C(=O)C1=Cc1ccc(Cl)c(Cl)c1 [compound 198]
15,>99,"O=C1SC(=Cc2cccc(O)c2O)C(=O)N1Cc1ccc(Cl)c(Cl)c1 [compound 8, 5-(2,3-Dihydroxybenzylidene)-3-(3,4-dichlorobenzyl)thiazolidine-2,4-dione]"
16,>99,CC(C)C1=NN(c2ccc(Cl)c(Cl)c2)C(=O)C1=Cc1ccc(O)c(O)c1 [compound 140]
17,40,COC(=O)c1cccc(N2N=C(C(F)(F)F)C(=Cc3ccc(SCCN(C)C)s3)C2=O)c1 [compound 178]
18,>99,"O=C1SC(=Cc2ccc(O)c(O)c2)C(=O)N1Cc1cc(Br)cc(Br)c1 [compound 46, 5-(3,4-Dihydroxybenzylidene)-3-(3,5-dibromobenzyl)thiazolidine-2,4-dione]"
19,>99,"O=C1SC(=Cc2ccc(O)c([N+](=O)[O-])c2)C(=O)N1Cc1ccc(Cl)c(Cl)c1 [compound 85, 5-(4-hydroxy-3-nitrobenzylidene)-3-(3,4-dichlorobenzyl)-thiazolidine-2,4-dione]"
20,62,O=C(O)c1cccc(N2N=C(C(F)(F)F)C(=Cc3ccc(-c4cc(C(F)(F)F)cc(C(F)(F)F)c4)o3)C2=O)c1 [compound 179]
21,>99,O=C1SC(=Cc2ccc(O)c(O)c2)C(=O)N1Cc1cc(Cl)cc(Cl)c1 [compound 12]
22,>99,COc1cc(C=C2SC(=O)N(Cc3ccc(Cl)c(Cl)c3)C2=O)cc(O)c1O [compound 38]
23,50,COC(=O)c1cccc(-c2ccc(C=C3C(=O)N(c4ccc(F)cc4)N=C3O)o2)c1 [compound 160]
24,30,O=C1C(=Cc2ccc(Br)o2)C(C(F)(F)F)=NN1c1cccc([N+](=O)[O-])c1 [compound 195]

row,Compound,Inhibitory Ratio at 25 μM (%)
1,O=C(O)c1cccc(N2N=C(C(F)(F)F)C(=Cc3ccc(-c4cc(Cl)cc(Cl)c4)o3)C2=O)c1 [compound 162],56

# Reference: patent US20070276011A1, “Plasminogen Activator Inhibitor-1 Inhibitor” (priority 2003, published 2007)
